Laboratory results reported in patent US20260364080A1, “PYRAZOLO-PYRIMIDINONE COMPOUNDS FOR USE IN METHODS OF INHIBITING WEE1 A KINASE” (Acrivon Therapeutics, Inc., priority 2023, published 2026).
Read-outs that look alike come from different tables or passages of the source.

Key:
[1] = molecular target: T1, Myt1 kinase (recombinant PMYT-1) (Homo sapiens, UniProt Q99640); experiment: Myt1 kinase binding assay (LanthaScreen Eu Kinase Binding Assay)
T1 construct: full length PMYT-1 was expressed by baculovirus in insect cells; purchased Invitrogen A30984; host or cells: insect cells (baculovirus)
T1 sequence (Q99640 1-499): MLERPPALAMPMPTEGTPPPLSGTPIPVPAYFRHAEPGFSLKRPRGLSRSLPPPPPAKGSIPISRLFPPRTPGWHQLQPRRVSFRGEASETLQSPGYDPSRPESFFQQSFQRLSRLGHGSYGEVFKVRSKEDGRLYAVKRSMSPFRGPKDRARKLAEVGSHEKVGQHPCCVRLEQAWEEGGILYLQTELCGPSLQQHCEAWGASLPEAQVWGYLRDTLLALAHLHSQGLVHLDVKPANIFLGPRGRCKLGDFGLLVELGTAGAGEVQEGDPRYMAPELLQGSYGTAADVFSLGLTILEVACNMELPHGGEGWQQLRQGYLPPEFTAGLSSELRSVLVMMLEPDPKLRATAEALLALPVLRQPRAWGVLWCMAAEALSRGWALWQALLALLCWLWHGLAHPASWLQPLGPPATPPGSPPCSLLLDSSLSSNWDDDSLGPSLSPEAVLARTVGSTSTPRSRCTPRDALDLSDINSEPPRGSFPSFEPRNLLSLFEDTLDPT
How it was run: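 Compound binding to Myt1 kinase was assessed using the LanthaScreen Eu Kinase Binding Assay. This europium-based binding format was applied to quantify how strongly each compound bound to the Myt1 enzyme, and the binding affinity was reported for each compound as an IC50 value.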

[2] = molecular target: T2, recombinant human Wee1A kinase (Homo sapiens, UniProt P30291); experiment: Wee1A kinase binding assay (LanthaScreen Eu time-resolved FRET)
T2 construct: full length Wee1 kinase was expressed by baculovirus in insect cells; purchased Invitrogen PV3817; host or cells: insect cells (baculovirus)
T2 sequence (P30291 whole entry): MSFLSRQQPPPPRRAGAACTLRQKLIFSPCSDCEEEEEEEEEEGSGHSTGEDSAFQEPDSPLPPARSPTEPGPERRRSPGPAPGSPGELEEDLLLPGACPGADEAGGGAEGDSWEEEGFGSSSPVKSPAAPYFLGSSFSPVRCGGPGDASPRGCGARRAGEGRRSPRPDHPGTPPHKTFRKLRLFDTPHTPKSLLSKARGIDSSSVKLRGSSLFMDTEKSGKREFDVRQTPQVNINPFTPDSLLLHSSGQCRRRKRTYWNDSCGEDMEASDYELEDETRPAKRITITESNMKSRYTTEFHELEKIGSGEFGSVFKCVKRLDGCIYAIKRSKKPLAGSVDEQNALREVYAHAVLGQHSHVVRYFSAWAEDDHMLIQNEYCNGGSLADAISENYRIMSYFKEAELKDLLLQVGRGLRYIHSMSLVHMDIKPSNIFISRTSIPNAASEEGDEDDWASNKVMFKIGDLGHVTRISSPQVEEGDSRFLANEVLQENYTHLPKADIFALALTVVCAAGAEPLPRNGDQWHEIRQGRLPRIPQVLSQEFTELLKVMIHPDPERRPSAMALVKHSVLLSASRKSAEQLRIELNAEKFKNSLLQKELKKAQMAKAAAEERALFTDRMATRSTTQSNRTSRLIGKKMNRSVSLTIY
How it was run: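 Full-length, baculovirus-expressed GST-tagged Wee1A (5 nM) was mixed with 2 nM Eu-anti-GST antibody, 30 nM kinase tracer 178 and compound (1% DMSO). Buffer was 50 mM HEPES pH 7.5, 10 mM MgCl2, 1 mM EGTA, 0.01% Brij-35, incubated 60 min at room temperature. TR-FRET 665/615 nm emission ratios from duplicates were curve-fitted.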

[3] = molecular target: T3, Wee1A kinase (CDK1 Tyr15 phosphorylation in ACHN renal cell carcinoma cells) (Homo sapiens, UniProt P30291); experiment: High-content imaging of pCdk1 Y15, Wee1A kinase target engagement in ACHN cells; assay type: cell-based
T3 construct: pCDK1 Tyr15 immunofluorescence read-out
T3 sequence (P30291 whole entry): as above
How it was run: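 EC50 values come from the per-well fraction of cells with nuclear pCdk1 Y15 staining, normalised to DMSO control, by automated immunofluorescence imaging. Cells were ACHN renal carcinoma, treated 4 h with compound at 7–5,000 nM or 0.3–200 nM.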

[4] = Myt1 kinase Binding IC50, 3 nM tracer 178, 2.5 nM PMYT-1, 1 nM Eu-labeled antibody
[5] = read-out: CDK1 Tyr15 Phosphorylation EC50, 4 h treatment, nuclear positivity for pCdk1 Y15 vs DMSO control
[6] = 3 nM tracer 178, 2.5 nM PMYT-1, 1 nM Eu-labeled antibody, read-out: Myt1 kinase Binding IC50
[7] = 30 nM tracer 178, 5 nM Wee1A kinase, 2 nM Eu-labeled antibody, 60 minutes at room temperature, read-out: Wee1A kinase Binding IC50
[8] = 4 h treatment, nuclear positivity for pCdk1 Y15 vs DMSO control, read-out: CDK1 Tyr15 Phosphorylation EC50

C=CCn1c(=O)c2cnc(Nc3cnn(CC(C)C)c3)nc2n1-c1cccc(N(C)C2CCNCC2)n1 [Compound 170, 1-{6-[methyl(piperidin-4-yl)amino]pyridin-2-yl}-6-{[1-(2-methylpropyl)-1H-pyrazol-4-yl]amino}-2-(prop-2-en-1-yl)-1H,2H,3H-pyrazolo[3,4-d]pyrimidin-3-one]
IC50 [1, 4]: > 500 nM | IC50 [2]: < 10 nM | EC50 [3, 5]: > 1000 nM

C=CCn1c(=O)c2cnc(Nc3ccc(Cl)cc3)nc2n1-c1cccc(N(C)[C@@H]2CCCNC2)n1 [Compound 171, 1-{6-[N—(R)-3-piperidyl-N-methylamino]-2-pyridyl}-2-allyl-6-(p-chlorophenylamino)-1,2-dihydro-3H-1,2,5,7-tetraazainden-3-one]
IC50 [1, 6]: > 500 nM | IC50 [2, 7]: < 10 nM | EC50 [3, 8]: > 1000 nM

C=CCn1c(=O)c2cnc(Nc3cnn(C(C)C)c3)nc2n1-c1cccc(N(C)C2CCN(C)CC2)n1 [Compound 174, 1-{6-[methyl(1-methylpiperidin-4-yl)amino]pyridin-2-yl}-2-(prop-2-en-1-yl)-6-{[1-(propan-2-yl)-1H-pyrazol-4-yl]amino}-1H,2H,3H-pyrazolo[3,4-d]pyrimidin-3-one]
IC50 [1, 4]: > 500 nM | IC50 [2]: < 10 nM | EC50 [3, 5]: 100 to 500 nM

C=CCn1c(=O)c2cnc(Nc3cnn(CC(C)C)c3)nc2n1-c1cccc(N(C)C2CCN(C)CC2)n1 [Compound 175, 1-{6-[methyl(1-methylpiperidin-4-yl)amino]pyridin-2-yl}-6-{[1-(2-methylpropyl)-1H-pyrazol-4-yl]amino}-2-(prop-2-en-1-yl)-1H,2H,3H-pyrazolo[3,4-d]pyrimidin-3-one]
IC50 [1, 4]: > 500 nM | IC50 [2]: < 10 nM | EC50 [3, 5]: 500 to 1000 nM

C=CCn1c(=O)c2cnc(Nc3ccc(Cl)cc3)nc2n1-c1cccc(O[C@H]2CN3CCC2CC3)n1 [Compound 176, 1-{6-[(3R)-1-azabicyclo[2.2.2]octan-3-yloxy]pyridin-2-yl}-6-[(4-chlorophenyl)amino]-2-(prop-2-en-1-yl)-1H,2H,3H-pyrazolo[3,4-d]pyrimidin-3-one]
IC50 [1, 4]: > 500 nM | IC50 [2]: < 10 nM | EC50 [3, 5]: > 1000 nM

C=CCn1c(=O)c2cnc(Nc3cnn(CCC)c3)nc2n1-c1cccc(N(C)C2CCN(C)CC2)n1 [Compound 177, 1-{6-[N-methyl(1-methyl-4-piperidyl)amino]-2-pyridyl}-2-allyl-6-(1-propyl-4-pyrazolylamino)-1,2-dihydro-3H-1,2,5,7-tetraazainden-3-one]
IC50 [1, 4]: > 500 nM | IC50 [2]: < 10 nM | EC50 [3, 5]: 100 to 500 nM

C=CCn1c(=O)c2cnc(Nc3ccc(OCC(F)(F)F)c(C)c3)nc2n1-c1cccc(NC2CCNCC2)n1 [Compound 178, 2-allyl-1-[6-(4-piperidylamino)-2-pyridyl]-6-[4-(2,2,2-trifluoroethoxy)-3-toluidino]-1,2-dihydro-3H-1,2,5,7-tetraazainden-3-one]
IC50 [1, 6]: 100 to 500 nM | IC50 [2, 7]: < 10 nM | EC50 [3, 8]: 100 to 500 nM

C=CCn1c(=O)c2cnc(Nc3cnn(CCC)c3)nc2n1-c1cccc(OC2CCNCC2)n1 [Compound 179, 2-allyl-1-[6-(4-piperidyloxy)-2-pyridyl]-6-(1-propyl-4-pyrazolylamino)-1,2-dihydro-3H-1,2,5,7-tetraazainden-3-one]
IC50 [1, 6]: > 500 nM | IC50 [2, 7]: < 10 nM | EC50 [3, 8]: > 1000 nM

C=CCn1c(=O)c2cnc(Nc3cnn(C)c3)nc2n1-c1cccc(N(C)C2CCNCC2)n1 [Compound 182, 1-{6-[methyl(piperidin-4-yl)amino]pyridin-2-yl}-6-[(1-methyl-1H-pyrazol-4-yl)amino]-2-(prop-2-en-1-yl)-1H,2H,3H-pyrazolo[3,4-d]pyrimidin-3-one]
IC50 [1, 4]: > 500 nM | IC50 [2]: < 10 nM | EC50 [3, 5]: > 1000 nM

C=CCn1c(=O)c2cnc(Nc3cnn(CC(C)(C)F)c3)nc2n1-c1cccc(N(C)C2CCNCC2)n1 [Compound 183, 1-[6-(N-methyl-N-4-piperidylamino)-2-pyridyl]-2-allyl-6-[1-(2-fluoro-2-methylpropyl)-4-pyrazolylamino]-1,2-dihydro-3H-1,2,5,7-tetraazainden-3-one]
IC50 [1, 4]: > 500 nM | IC50 [2]: < 10 nM | EC50 [3, 5]: > 1000 nM

C=CCn1c(=O)c2cnc(Nc3cnn(C)c3)nc2n1-c1cccc(N(C)C2CCN(C)CC2)n1 [Compound 184, 1-{6-[methyl(1-methylpiperidin-4-yl)amino]pyridin-2-yl}-6-[(1-methyl-1H-pyrazol-4-yl)amino]-2-(prop-2-en-1-yl)-1H,2H,3H-pyrazolo[3,4-d]pyrimidin-3-one]
IC50 [1, 4]: > 500 nM | IC50 [2]: < 10 nM | EC50 [3, 5]: 100 to 500 nM

C=CCn1c(=O)c2cnc(Nc3cnn(CC(C)(C)F)c3)nc2n1-c1cccc(N(C)C2CCN(C)CC2)n1 [Compound 185, 6-{[1-(2-fluoro-2-methylpropyl)-1H-pyrazol-4-yl]amino}-1-{6-[methyl(1-methylpiperidin-4-yl)amino]pyridin-2-yl}-2-(prop-2-en-1-yl)-1H,2H,3H-pyrazolo[3,4-d]pyrimidin-3-one]
IC50 [1, 4]: > 500 nM | IC50 [2]: < 10 nM | EC50 [3, 5]: 500 to 1000 nM

C=CCn1c(=O)c2cnc(Nc3ccc(Cl)cc3)nc2n1-c1cccc(O[C@@H]2CCCN(C)C2)n1 [Compound 187, 1-{6-[(R)-1-methyl-3-piperidyloxy]-2-pyridyl}-2-allyl-6-(p-chlorophenylamino)-1,2-dihydro-3H-1,2,5,7-tetraazainden-3-one]
IC50 [1, 6]: 100 to 500 nM | IC50 [2, 7]: < 10 nM | EC50 [3, 8]: 500 to 1000 nM

C=CCn1c(=O)c2cnc(Nc3cnn(C)c3)nc2n1-c1cccc(O[C@@H]2C[C@H]3CC[C@@H](C2)N3C)n1 [Compound 189, 6-[(1-methyl-1H-pyrazol-4-yl)amino]-1-(6-{[(cis)-8-methyl-8-azabicyclo[3.2.1]octan-3-yl]oxy}pyridin-2-yl)-2-(prop-2-en-1-yl)-1H,2H,3H-pyrazolo[3,4-d]pyrimidin-3-one]
IC50 [1, 4]: > 500 nM | IC50 [2]: < 10 nM | EC50 [3, 5]: 500 to 1000 nM

C=CCn1c(=O)c2cnc(Nc3ccc(Cl)cc3)nc2n1-c1cccc(O[C@@H]2CCCNC2)n1 [Compound 192, 1-{6-[(R)-3-piperidyloxy]-2-pyridyl}-2-allyl-6-(p-chlorophenylamino)-1,2-dihydro-3H-1,2,5,7-tetraazainden-3-one]
IC50 [1, 6]: 100 to 500 nM | IC50 [2, 7]: < 10 nM | EC50 [3, 8]: 100 to 500 nM

C=CCn1c(=O)c2cnc(Nc3cnn(C(C)C)c3)nc2n1-c1cccc(OC2CC3CCCC(C2)N3C)n1 (stereo not drawn) [Compound 193, 2-allyl-6-(1-isopropyl-4-pyrazolylamino)-1-{6-(9-methyl-9-azabicyclo[3.3.1]non-3-yloxy)-2-pyridyl}-1,2-dihydro-3H-1,2,5,7-tetraazainden-3-one]
IC50 [1, 6]: > 500 nM | IC50 [2, 7]: < 10 nM | EC50 [3, 8]: 100 to 500 nM

C=CCn1c(=O)c2cnc(Nc3cnn(CCC(F)(F)F)c3)nc2n1-c1cccc(N(C)C2CCN(C)CC2)n1 [Compound 201, 2-allyl-1-(6-(methyl(1-methylpiperidin-4-yl)amino)pyridin-2-yl)-6-((1-(3,3,3-trifluoropropyl)-1H-pyrazol-4-yl)amino)-1,2-dihydro-3H-pyrazolo[3,4-d]pyrimidin-3-one]
IC50 [1, 4]: 100 to 500 nM | IC50 [2]: < 10 nM | EC50 [3, 5]: 500 to 1000 nM

C=CCn1c(=O)c2cnc(Nc3cc(C)nc(C(F)(F)F)c3)nc2n1-c1cccc(OC2CCN(C)CC2)n1 [Compound 202, 6-{[2-methyl-6-(trifluoromethyl)pyridin-4-yl]amino}-1-{6-[(1-methylpiperidin-4-yl)oxy]pyridin-2-yl}-2-(prop-2-en-1-yl)-1H,2H,3H-pyrazolo[3,4-d]pyrimidin-3-one]
IC50 [1, 6]: 100 to 500 nM | IC50 [2, 7]: < 10 nM | EC50 [3, 8]: 500 to 1000 nM
